# From paper PMC4503722, “Novel Phenotypic Outcomes Identified for a Public Collection of Approved Drugs from a Publicly Accessible Panel of Assays” (PLoS ONE, 2015)
# Like-named read-outs stand apart in the source and are kept apart here.
# Legend:
# INS-1E cells = assay: cells; type: cell-based, rat;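 also: secreted insulin quantified by homogeneous immunoassay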
# RKO = assay: cells; type: cell-based
# Colo320 = assay: cells; type: cell-based
# HeLa cells = assay: cells; type: cell-based
# [1] = system: HCT116 cells treated with a GSK3β inhibitor; assay: cells; type: cell-based
# SW480 = assay: cells; type: cell-based
# HCT116 = assay: cells; type: cell-based
# HT-29 = assay: cells; type: cell-based
# [2] = system: ECFC/ADSC co-culture cell nuclei number
# [3] = system: endothelial tube formation in co-cultures of ECFCs and ADSCs treated with VEGF; assay: cells; type: cell-based, human
# SNU-C1 = assay: cells; type: cell-based
# DLD-1 = assay: cells; type: cell-based
smiles,measurement,setting,value
CCCCOc1cc(C(=O)OCCN(CC)CC)ccc1N [NCGC00016667-04],5mMGluc_INS1E SecretionMod IC50/EC50,"INS-1E cells; assay number 8, 5 mM glucose",15.5055 µM
CCCN1CCCC[C@H]1C(=O)Nc1c(C)cccc1C [NCGC00164597-02],5mMGluc_INS1E SecretionMod IC50/EC50,"INS-1E cells; assay number 8, 5 mM glucose",> 33.33 µM
CCN(CC)C(C)CN1c2ccccc2Sc2ccccc21.Cl (stereo not shown) [NCGC00178860-06],5mMGluc_INS1E SecretionMod IC50/EC50,"INS-1E cells; assay number 8, 5 mM glucose",> 33.33 µM
CCC(CN)=C(c1ccccc1)c1ccccc1.Cl [NCGC00262942-01],5mMGluc_INS1E SecretionMod IC50/EC50,"INS-1E cells; assay number 8, 5 mM glucose",10.7785 µM
CCCC(CCC)C(=O)O [NCGC00162288-07],"IC50/EC50, 5mMGluc_INS1E SecretionMod (assay number 8)",INS-1E cells; 5 mM glucose,> 33.33 µM
CCC1=C(C)CN(C(=O)NCCc2ccc(S(=O)(=O)NC(=O)NC3CCC(C)CC3)cc2)C1=O (stereo not shown) [NCGC00016960-07],5mMGluc_INS1E SecretionMod IC50/EC50,"INS-1E cells; assay number 8, 5 mM glucose",0.00406 µM
CC(CCc1ccccc1)NC(C)C(O)c1ccc(O)cc1 (stereo not shown) [NCGC00015716-09],5mMGluc_INS1E SecretionMod IC50/EC50,"INS-1E cells; assay number 8, 5 mM glucose",14.4759 µM
CCCCC(CC)CN=C(N)NC(N)=NCCCCCCN=C(N)NC(N)=NCC(CC)CCCC (stereo not shown) [NCGC00178352-06],"IC50/EC50, Basal_Viability ATP RKO (assay number 29)",RKO,0.2228 µM
same,"IC50/EC50, Basal_Viability ATP Colo 320 (assay number 27)",Colo320,0.0041 µM
same,"IC50/EC50, Hela CellCycMod PI 2N (assay number 14)",HeLa cells,> 10 µM
same,"IC50/EC50, Hela CellCycMod PI 4N (assay number 16)",HeLa cells,> 10 µM
same,"IC50/EC50, Hela CellCycMod PI Cell Number (assay number 18)",HeLa cells,0.0186 µM
same,"IC50/EC50, Hela CellCycMod PI MI (assay number 17)",HeLa cells,> 10 µM
same,"IC50/EC50, Hela CellCycMod PI S Phase (assay number 15)",HeLa cells,> 10 µM
same,"IC50/EC50, GSK3b inh pretreated_Viability ATP HCT116 (assay number 26)",[1],0.3963 µM
same,"IC50/EC50, Basal_Viability ATP SW480 (assay number 24)",SW480,0.3327 µM
same,"IC50/EC50, Basal_Viability ATP HCT116 (assay number 25)",HCT116,0.7096 µM
same,"IC50/EC50, Basal_Viability ATP HT-29 (assay number 28)",HT-29,0.0302 µM
same,"IC50/EC50, VEGF_ADSC\ECFC Angio Hoechst NucArea (assay number 3)",[2],> 10 µM
same,"IC50/EC50, VEGF_ADSC\ECFC Angio CD31 TubeArea (assay number 2)",[3],0.4078 µM
same,"IC50/EC50, Basal_Viability ATP SNU-C1 (assay number 30)",SNU-C1,0.0941 µM
same,"IC50/EC50, Basal_Viability ATP DLD-1 (assay number 23)",DLD-1,0.0197 µM
O=C(CCCN1CCC(O)(c2ccc(Br)cc2)CC1)c1ccc(F)cc1 [NCGC00016692-05],5mMGluc_INS1E SecretionMod IC50/EC50,"INS-1E cells; assay number 8, 5 mM glucose",> 33.33 µM
CN(C)CCCOc1nn(Cc2ccccc2)c2ccccc12.Cl [NCGC00016397-04],"IC50/EC50, 5mMGluc_INS1E SecretionMod (assay number 8)",INS-1E cells; 5 mM glucose,21.3864 µM
COc1ccc(Cl)cc1C(=O)NCCc1ccc(S(=O)(=O)NC(=O)NC2CCCCC2)cc1 [NCGC00015467-20],"IC50/EC50, 5mMGluc_INS1E SecretionMod (assay number 8)",INS-1E cells; 5 mM glucose,0.00808 µM
CCN1CCCC(OC(=O)C(c2ccccc2)c2ccccc2)C1 (stereo not shown) [NCGC00178395-04],5mMGluc_INS1E SecretionMod IC50/EC50,"INS-1E cells; assay number 8, 5 mM glucose",18.2267 µM
CN1CCC(N(Cc2cccs2)c2ccccc2)CC1 [NCGC00183847-01],5mMGluc_INS1E SecretionMod IC50/EC50,INS-1E cells,20.3958 µM
CC(C)=CCOc1ccc(/C=C/C(=O)c2ccc(OCC=C(C)C)cc2OCC(=O)O)cc1 [NCGC00159481-03],Basal_Viability ATP RKO IC50/EC50,RKO,5.5335 µM
same,Basal_Viability ATP Colo 320 IC50/EC50,Colo320,1.5527 µM
same,Hela CellCycMod PI 2N IC50/EC50,HeLa cells,> 10 µM
same,Hela CellCycMod PI 4N IC50/EC50,HeLa cells,> 10 µM
same,Hela CellCycMod PI Cell Number IC50/EC50,HeLa cells,> 10 µM
same,Hela CellCycMod PI MI IC50/EC50,HeLa cells,> 10 µM
same,Hela CellCycMod PI S Phase IC50/EC50,HeLa cells,> 10 µM
same,GSK3b inh pretreated_Viability ATP HCT116 IC50/EC50,[1],3.0351 µM
same,Basal_Viability ATP SW480 IC50/EC50,SW480,2.9193 µM
same,Basal_Viability ATP HCT116 IC50/EC50,HCT116,> 6.667 µM
same,Basal_Viability ATP HT-29 IC50/EC50,HT-29,5.3973 µM
same,VEGF_ADSC\ECFC Angio Hoechst NucArea IC50/EC50,[2],> 10 µM
same,VEGF_ADSC\ECFC Angio CD31 TubeArea IC50/EC50,[3],> 10 µM
same,Basal_Viability ATP SNU-C1 IC50/EC50,SNU-C1,7.4428 µM
same,Basal_Viability ATP DLD-1 IC50/EC50,DLD-1,5.3614 µM
C[C@@H](C1=C(CCN(C)C)Cc2ccccc21)c1ccccn1.O=C(O)/C=C\C(=O)O [NCGC00025158-02],5mMGluc_INS1E SecretionMod IC50/EC50,"INS-1E cells; assay number 8, 5 mM glucose",8.4103 µM
